# Laboratory results as given in US20200339625A1, “NOVEL RADIOMETAL-BINDING COMPOUNDS FOR DIAGNOSIS OR TREATMENT OF PROSTATE SPECIFIC MEMBRANE ANTIGEN-EXPRESSING CANCER” (PROVINCIAL HEALTH SERVICES AUTHORITY, priority 2017, published 2020).
# Key:
# [1] = system: mice bearing LNCaP tumor xenografts; experiment: PET/CT imaging of 68Ga-labeled compounds; format: in vivo; conditions: for change of tumor uptake from 1 h to 3 h post-injection: PET/CT images; for blood retention (qualitative): PET/CT images at 1 h and 3 h post-injection, comparison within the figure
# Protocol: 2.17 PET/CT Imaging and Biodistribution
# (§1) Imaging and biodistribution experiments were performed using NODSCID 1L2RyKO male mice. Mice were anesthetized by inhalation with 2% isoflurane in oxygen, and implanted subcutaneously with 1×10^7 LNCaP cells behind left shoulder. Mice were imaged or used in biodistribution studies when the tumor grew up to reach 5-8 mm in diameter during 5-6 weeks.
# PET imaging experiments were conducted using Siemens Inveon micro PET/CT scanner. Each tumor bearing mouse was injected 6-8 MBq of 68Ga-labeled tracer through the tail vein under anesthesia (2% isoflurane in oxygen). The mice were allowed to recover and roam freely in their cage. After 50 min, the mice were sedated again with 2% isoflurane in oxygen inhalation and positioned in the scanner. A 10-min CT scan was conducted first for localization and attenuation correction after segmentation for reconstructing the PET images. Then, a 10-min static PET imaging was performed to determined uptake in tumor and other organs. The mice were kept warm by a heating pad during acquisition. For imaging studies acquired at 3 h post-injection (p.i.), the mice were placed in the micro PET/CT scanner at 170 min p.i. Then, the CT acquisitions were conducted as described above, a 15-min static PET imaging was performed to determined uptake in tumor and other organs.
# [2] = system: mice bearing PSMA-expressing LNCAP cancer xenografts; experiment: Biodistribution of 68Ga-labeled compounds; format: in vivo
# Protocol: as §1
# For biodistribution studies, the mice were injected with the radiotracer as described above. At predetermined time points (1 or 3 h), the mice was anesthetized with 2% isoflurane inhalation, and euthanized by CO2 inhalation. Blood was withdrawn immediately from the heart, and the organs/tissues of interest were collected. The collected organs/tissues were weighed and counted using an automatic gamma counter. The uptake in each organ/tissue was normalized to the injected dose using a standard curve, and expressed as the percentage of the injected dose per gram of tissue (% ID/g).
smiles,measurement,setting,value
O=C([O-])CN1CCN(CC(=O)[O-])CCN(CC(=O)NCCCC[C@H](NC(=O)CNC(=O)CCCc2ccc(Cl)cc2)C(=O)NC[C@H]2CC[C@H](C(=O)N[C@@H](Cc3ccc4ccccc4c3)C(=O)NCCCC[C@H](NC(=O)N[C@@H](CCC(=O)O)C(=O)O)C(=O)O)CC2)CCN(CC(=O)[O-])CC1.[68Ga+3] [^68Ga-HTK03055],change of tumor uptake from 1 h to 3 h post-injection,[1],uptake in tumors increases over time
same,blood retention (qualitative),[1],some extent of blood retention
same,Adrenal glands uptake,[2]; 1 h post-injection,5.51 ± 1.56 % ID/g
same,Blood uptake,[2]; 1 h post-injection,22.1 ± 2.04 % ID/g
same,Bone uptake,[2]; 1 h post-injection,1.59 ± 0.44 % ID/g
same,Brain uptake,[2]; 1 h post-injection,0.29 ± 0.04 % ID/g
same,Fat uptake,[2]; 1 h post-injection,2.20 ± 0.41 % ID/g
same,Heart uptake,[2]; 1 h post-injection,5.20 ± 0.59 % ID/g
same,Intestine uptake,[2]; 1 h post-injection,1.52 ± 0.21 % ID/g
same,Kidneys uptake,[2]; 1 h post-injection,31.1 ± 4.40 % ID/g
same,Lacrimal uptake,[2]; 1 h post-injection,1.82 ± 1.46 % ID/g
same,Liver uptake,[2]; 1 h post-injection,3.35 ± 1.08 % ID/g
same,Lungs uptake,[2]; 1 h post-injection,8.37 ± 1.10 % ID/g
same,Muscle uptake,[2]; 1 h post-injection,1.60 ± 0.19 % ID/g
same,Pancreas uptake,[2]; 1 h post-injection,2.02 ± 0.32 % ID/g
same,Salivary uptake,[2]; 1 h post-injection,3.87 ± 0.70 % ID/g
same,Seminal uptake,[2]; 1 h post-injection,1.19 ± 0.18 % ID/g
same,Spleen uptake,[2]; 1 h post-injection,3.05 ± 0.63 % ID/g
same,Stomach uptake,[2]; 1 h post-injection,0.62 ± 0.09 % ID/g
same,Tail uptake,[2]; 1 h post-injection,4.42 ± 0.76 % ID/g
same,Testes uptake,[2]; 1 h post-injection,2.54 ± 0.34 % ID/g
same,Thyroid uptake,[2]; 1 h post-injection,4.20 ± 0.53 % ID/g
same,Tumor uptake,[2]; 1 h post-injection,17.2 ± 1.67 % ID/g
same,Tumor:Blood ratio,[2]; 1 h post-injection,0.78 ± 0.04
same,Tumor:Muscle ratio,[2]; 1 h post-injection,10.8 ± 1.15
same,Tumor:kidney ratio,[2]; 1 h post-injection,0.56 ± 0.06
same,Urine uptake,[2]; 1 h post-injection,14.6 ± 10.9 % ID/g
same,Adrenal glands uptake,[2]; 3 h post-injection,6.45 ± 1.03 % ID/g
same,Blood uptake,[2]; 3 h post-injection,17.4 ± 1.15 % ID/g
same,Bone uptake,[2]; 3 h post-injection,2.11 ± 0.62 % ID/g
same,Brain uptake,[2]; 3 h post-injection,0.28 ± 0.06 % ID/g
same,Fat uptake,[2]; 3 h post-injection,2.12 ± 0.69 % ID/g
same,Heart uptake,[2]; 3 h post-injection,3.89 ± 0.40 % ID/g
same,Intestine uptake,[2]; 3 h post-injection,1.29 ± 0.18 % ID/g
same,Kidneys uptake,[2]; 3 h post-injection,35.6 ± 7.23 % ID/g
same,Lacrimal uptake,[2]; 3 h post-injection,4.14 ± 3.82 % ID/g
same,Liver uptake,[2]; 3 h post-injection,2.96 ± 0.56 % ID/g
same,Lungs uptake,[2]; 3 h post-injection,7.50 ± 1.05 % ID/g
same,Muscle uptake,[2]; 3 h post-injection,1.26 ± 0.18 % ID/g
same,Pancreas uptake,[2]; 3 h post-injection,1.74 ± 0.30 % ID/g
same,Salivary uptake,[2]; 3 h post-injection,3.57 ± 1.07 % ID/g
same,Seminal uptake,[2]; 3 h post-injection,1.07 ± 0.12 % ID/g
same,Spleen uptake,[2]; 3 h post-injection,3.07 ± 0.78 % ID/g
same,Stomach uptake,[2]; 3 h post-injection,0.59 ± 0.13 % ID/g
same,Tail uptake,[2]; 3 h post-injection,3.52 ± 0.65 % ID/g
same,Testes uptake,[2]; 3 h post-injection,2.63 ± 0.49 % ID/g
same,Thyroid uptake,[2]; 3 h post-injection,3.40 ± 0.56 % ID/g
same,Tumor uptake,[2]; 3 h post-injection,30.1 ± 3.12 % ID/g
same,Tumor:Blood ratio,[2]; 3 h post-injection,1.75 ± 0.28
same,Tumor:Muscle ratio,[2]; 3 h post-injection,24.5 ± 5.08
same,Tumor:kidney ratio,[2]; 3 h post-injection,0.88 ± 0.22
same,Urine uptake,[2]; 3 h post-injection,33.8 ± 22.3 % ID/g
O=C([O-])CN1CCN(CC(=O)[O-])CCN(CC(=O)NCCCC[C@H](NC(=O)CNC(=O)CCCc2ccccc2)C(=O)NC[C@H]2CC[C@H](C(=O)N[C@@H](Cc3ccc4ccccc4c3)C(=O)NCCCC[C@H](NC(=O)N[C@@H](CCC(=O)O)C(=O)O)C(=O)O)CC2)CCN(CC(=O)[O-])CC1.[68Ga+3] [^68Ga-HTK03056],change of tumor uptake from 1 h to 3 h post-injection,[1],uptake in tumors increases over time
same,blood retention (qualitative),[1],some extent of blood retention
same,Adrenal glands uptake,[2]; 1 h post-injection,3.78 ± 0.46 % ID/g
same,Blood uptake,[2]; 1 h post-injection,4.68 ± 1.09 % ID/g
same,Bone uptake,[2]; 1 h post-injection,0.76 ± 0.14 % ID/g
same,Brain uptake,[2]; 1 h post-injection,0.10 ± 0.03 % ID/g
same,Fat uptake,[2]; 1 h post-injection,0.87 ± 0.53 % ID/g
same,Heart uptake,[2]; 1 h post-injection,1.29 ± 0.34 % ID/g
same,Intestine uptake,[2]; 1 h post-injection,0.60 ± 0.14 % ID/g
same,Kidneys uptake,[2]; 1 h post-injection,123 ± 30.4 % ID/g
same,Lacrimal uptake,[2]; 1 h post-injection,1.35 ± 0.43 % ID/g
same,Liver uptake,[2]; 1 h post-injection,1.02 ± 0.34 % ID/g
same,Lungs uptake,[2]; 1 h post-injection,3.28 ± 0.85 % ID/g
same,Muscle uptake,[2]; 1 h post-injection,0.53 ± 0.11 % ID/g
same,Pancreas uptake,[2]; 1 h post-injection,0.85 ± 0.15 % ID/g
same,Salivary uptake,[2]; 1 h post-injection,3.34 ± 0.89 % ID/g
same,Seminal uptake,[2]; 1 h post-injection,0.74 ± 0.39 % ID/g
same,Spleen uptake,[2]; 1 h post-injection,3.92 ± 0.88 % ID/g
same,Stomach uptake,[2]; 1 h post-injection,0.27 ± 0.10 % ID/g
same,Tail uptake,[2]; 1 h post-injection,1.43 ± 0.34 % ID/g
same,Testes uptake,[2]; 1 h post-injection,0.98 ± 0.22 % ID/g
same,Thyroid uptake,[2]; 1 h post-injection,1.49 ± 0.44 % ID/g
same,Tumor uptake,[2]; 1 h post-injection,25.9 ± 3.21 % ID/g
same,Tumor:Blood ratio,[2]; 1 h post-injection,5.67 ± 0.97
same,Tumor:Muscle ratio,[2]; 1 h post-injection,49.7 ± 5.98
same,Tumor:kidney ratio,[2]; 1 h post-injection,0.22 ± 0.04
same,Urine uptake,[2]; 1 h post-injection,203 ± 88.0 % ID/g
same,Adrenal glands uptake,[2]; 3 h post-injection,3.95 ± 2.28 % ID/g
same,Blood uptake,[2]; 3 h post-injection,1.17 ± 0.36 % ID/g
same,Bone uptake,[2]; 3 h post-injection,1.93 ± 1.51 % ID/g
same,Brain uptake,[2]; 3 h post-injection,0.12 ± 0.05 % ID/g
same,Fat uptake,[2]; 3 h post-injection,0.58 ± 0.13 % ID/g
same,Heart uptake,[2]; 3 h post-injection,0.59 ± 0.26 % ID/g
same,Intestine uptake,[2]; 3 h post-injection,0.34 ± 0.04 % ID/g
same,Kidneys uptake,[2]; 3 h post-injection,31.1 ± 15.2 % ID/g
same,Lacrimal uptake,[2]; 3 h post-injection,3.01 ± 1.26 % ID/g
same,Liver uptake,[2]; 3 h post-injection,0.43 ± 0.08 % ID/g
same,Lungs uptake,[2]; 3 h post-injection,1.39 ± 0.53 % ID/g
same,Muscle uptake,[2]; 3 h post-injection,0.46 ± 0.30 % ID/g
same,Pancreas uptake,[2]; 3 h post-injection,0.41 ± 0.09 % ID/g
same,Salivary uptake,[2]; 3 h post-injection,2.06 ± 1.16 % ID/g
same,Seminal uptake,[2]; 3 h post-injection,0.29 ± 0.08 % ID/g
same,Spleen uptake,[2]; 3 h post-injection,2.10 ± 1.16 % ID/g
same,Stomach uptake,[2]; 3 h post-injection,0.14 ± 0.03 % ID/g
same,Tail uptake,[2]; 3 h post-injection,0.54 ± 0.22 % ID/g
same,Testes uptake,[2]; 3 h post-injection,0.56 ± 0.19 % ID/g
same,Thyroid uptake,[2]; 3 h post-injection,0.72 ± 0.29 % ID/g
same,Tumor uptake,[2]; 3 h post-injection,32.9 ± 10.9 % ID/g
same,Tumor:Blood ratio,[2]; 3 h post-injection,30.4 ± 13.2
same,Tumor:Muscle ratio,[2]; 3 h post-injection,98.6 ± 61.8
same,Tumor:kidney ratio,[2]; 3 h post-injection,1.22 ± 0.53
same,Urine uptake,[2]; 3 h post-injection,275 ± 158 % ID/g
